Measured values taken from US20170281622A1, “DERIVATIVES OF MACROCYCLIC N-ARYL-2-AMINO-4-ARYL-PYRIMIDINE POLYETHERS AS INHIBITORS OF FTL3 AND JAK” (PIERRE FABRE MEDICAMENT, priority 2014, published 2017).
Positions count from the first letter of the chain named.

Columns and labels:
[1] = system: MV4-11; test: Antiproliferative activity, MV4-11 cells (ATPLite); assay type: cell-based; settings: Homo sapiens; MV4-11 cell line (acute myeloid leukemia, FLT3-ITD), 72 h, cell viability by ATPLite; read-out: EC50 MV411
Procedure: (§1) The characteristics of the cell lines used are as follows (Table 2).
(§2) MV4-11 and MOLM-13 cell lines are cultured in the culture medium specified in Table 2 above and according to the supplier's recommendations. The tests are carried out in 96-well plates. The cells are divided in two at D0. At D1, they are seeded and treated with the compounds at various concentrations and incubated for 72 h at 37° C. and 5% CO2. The dilution of the compounds from stock solutions in DMSO (Sigma, #D8418) was made semi-logarithmically for a final concentration in the culture medium of 0.1%. At day 4, cell viability is evaluated by assaying the ATP released by the living cells using the ATPLite® kit (Perkin Elmer, #6016947). The EC50 values (concentration of the compound necessary to obtain 50% of the maximum effect) are calculated using curve-fitting software.

[2] = target: T1, FLT3-ITD (Homo sapiens, UniProt P36888); test: LanthaScreen TR-FRET binding test, FLT3-ITD; settings: 15 nM protein, kinase tracer 236 3 nM, 25° C., 1 hour
T1 construct: fused on or other part: GST tag, inferred from detection with the anti-GST europium antibody
T1 sequence (P36888 1-993): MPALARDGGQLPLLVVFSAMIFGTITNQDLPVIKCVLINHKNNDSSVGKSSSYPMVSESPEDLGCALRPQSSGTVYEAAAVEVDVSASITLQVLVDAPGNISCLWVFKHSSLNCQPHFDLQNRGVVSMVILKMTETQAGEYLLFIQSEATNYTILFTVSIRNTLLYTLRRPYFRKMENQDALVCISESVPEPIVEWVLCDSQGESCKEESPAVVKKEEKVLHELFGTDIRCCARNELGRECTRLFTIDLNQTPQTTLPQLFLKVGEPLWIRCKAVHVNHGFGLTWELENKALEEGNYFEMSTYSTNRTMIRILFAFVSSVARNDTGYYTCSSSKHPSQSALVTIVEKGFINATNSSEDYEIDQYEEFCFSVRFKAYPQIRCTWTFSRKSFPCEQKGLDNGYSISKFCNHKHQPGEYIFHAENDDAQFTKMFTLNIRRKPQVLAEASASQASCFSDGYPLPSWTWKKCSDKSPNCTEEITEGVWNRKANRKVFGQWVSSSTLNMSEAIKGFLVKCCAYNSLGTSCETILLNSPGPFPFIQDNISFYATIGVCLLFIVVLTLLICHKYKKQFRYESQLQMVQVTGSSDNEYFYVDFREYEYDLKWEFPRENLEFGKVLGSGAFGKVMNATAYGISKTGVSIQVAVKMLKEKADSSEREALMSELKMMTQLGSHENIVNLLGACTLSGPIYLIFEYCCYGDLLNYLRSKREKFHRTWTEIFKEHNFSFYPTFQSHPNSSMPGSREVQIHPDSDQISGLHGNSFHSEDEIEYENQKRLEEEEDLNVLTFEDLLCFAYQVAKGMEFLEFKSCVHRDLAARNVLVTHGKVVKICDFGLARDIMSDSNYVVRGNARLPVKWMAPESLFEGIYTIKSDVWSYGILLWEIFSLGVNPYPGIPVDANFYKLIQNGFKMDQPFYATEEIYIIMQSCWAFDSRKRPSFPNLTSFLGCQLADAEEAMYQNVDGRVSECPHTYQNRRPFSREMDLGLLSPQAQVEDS
Procedure: (§3) FLT3 (#PV3182), JAK2 (#FV4210) and JAK3 (#PV3855) recombinant enzymes were purchased from Life Technologies, FLT3-ITD (#0778-0000-1) and FLT3^D835Y (#14-610) proteins were purchased from ProQinase and Merck Millipore, respectively. All the tests were carried out in 384-well plates. The principle of these binding tests is based on the LanthaScreen® TR-FRET methodology from Life Technologies.
(§4) FLT3 tests. The reaction mixture (15 μL total volume) contains the following compounds: 15 nM FLT3, FLT3-ITD or FLT3^D835Y, 3 nM kinase tracer 236 (Life Technologies, #PV5592) and 6 nM LanthaScreen® anti-GST antibody coupled to a europium chelate (Life Technologies, #PV5594) for FLT3-ITD and FLT3^D835Y or 6 nM LanthaScreen® anti-His antibody coupled to a europium chelate (Life Technologies, #PV5596) for FLT3.
(§5) The compounds are evaluated at 8 different concentrations prepared by making dilutions from a starting 10 mM stock solution in dimethylsulfoxide (DMSO) (Sigma, #D8418). The final DMSO concentration in the test is 1%. The reaction is carried out at 25° C. for 1 hour and detected on the EnVision® reader (Perkin Elmer) according to the recommendations of the supplier, Life Technologies.
(§6) The results are presented (Table 1) as the concentration values of the compound at which 50% of the kinase activity is inhibited, IC50 (μM), generated using the PRISM software (GraphPad).

[3] = target: T2, JAK3 (Homo sapiens, UniProt P52333); test: LanthaScreen TR-FRET binding test, JAK3; settings: recombinant enzyme 15 nM, kinase tracer 236 3 nM, 25° C., 1 hour
T2 construct: purchased Life Technologies PV3855
T2 sequence (P52333 1-1124): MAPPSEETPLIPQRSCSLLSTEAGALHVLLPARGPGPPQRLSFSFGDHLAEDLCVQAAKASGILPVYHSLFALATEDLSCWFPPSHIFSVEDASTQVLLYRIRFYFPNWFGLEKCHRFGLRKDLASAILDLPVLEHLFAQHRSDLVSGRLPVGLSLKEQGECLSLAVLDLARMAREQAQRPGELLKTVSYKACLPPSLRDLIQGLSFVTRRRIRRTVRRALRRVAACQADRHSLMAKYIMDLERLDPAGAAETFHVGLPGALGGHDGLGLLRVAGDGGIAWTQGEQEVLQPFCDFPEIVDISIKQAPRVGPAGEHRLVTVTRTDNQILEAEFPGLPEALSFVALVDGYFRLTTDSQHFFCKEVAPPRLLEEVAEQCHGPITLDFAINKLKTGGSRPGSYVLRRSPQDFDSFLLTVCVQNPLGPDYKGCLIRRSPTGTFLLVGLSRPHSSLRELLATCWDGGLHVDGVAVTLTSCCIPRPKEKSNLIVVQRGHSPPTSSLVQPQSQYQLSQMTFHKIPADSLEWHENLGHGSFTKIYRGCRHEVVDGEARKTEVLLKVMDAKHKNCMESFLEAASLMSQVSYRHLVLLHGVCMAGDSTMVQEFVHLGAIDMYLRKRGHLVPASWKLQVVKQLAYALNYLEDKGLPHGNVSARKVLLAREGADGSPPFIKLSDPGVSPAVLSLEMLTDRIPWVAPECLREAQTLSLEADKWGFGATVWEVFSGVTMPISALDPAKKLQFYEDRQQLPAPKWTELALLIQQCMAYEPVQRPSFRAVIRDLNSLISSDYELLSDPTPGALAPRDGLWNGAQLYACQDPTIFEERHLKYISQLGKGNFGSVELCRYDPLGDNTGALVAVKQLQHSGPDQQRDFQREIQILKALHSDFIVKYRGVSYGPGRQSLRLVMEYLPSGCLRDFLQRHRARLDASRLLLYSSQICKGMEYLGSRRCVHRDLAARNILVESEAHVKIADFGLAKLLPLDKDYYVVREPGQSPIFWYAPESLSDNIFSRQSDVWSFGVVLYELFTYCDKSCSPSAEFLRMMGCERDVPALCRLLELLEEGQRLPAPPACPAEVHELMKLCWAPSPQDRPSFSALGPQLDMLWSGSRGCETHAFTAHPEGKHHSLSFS
Procedure: as §3
(§7) JAK tests. The reaction mixture (15 μL total volume) contains the following compounds: 15 nM JAK2 or JAK3, 150 nM kinase tracer 236 (Life Technologies, #PV5592) for JAK2 or 3 nM for JAK3 and 6 nM LanthaScreen® anti-GST antibody coupled to a europium chelate (Life Technologies, #PV5594) for both enzymes.
as §5, §6

[4] = target: T3, FLT3 (Homo sapiens, UniProt P36888); test: LanthaScreen TR-FRET binding test, FLT3; settings: recombinant enzyme 15 nM, kinase tracer 236 3 nM, 25° C., 1 hour
T3 construct: purchased Life Technologies PV3182
T3 sequence (P36888 27-993): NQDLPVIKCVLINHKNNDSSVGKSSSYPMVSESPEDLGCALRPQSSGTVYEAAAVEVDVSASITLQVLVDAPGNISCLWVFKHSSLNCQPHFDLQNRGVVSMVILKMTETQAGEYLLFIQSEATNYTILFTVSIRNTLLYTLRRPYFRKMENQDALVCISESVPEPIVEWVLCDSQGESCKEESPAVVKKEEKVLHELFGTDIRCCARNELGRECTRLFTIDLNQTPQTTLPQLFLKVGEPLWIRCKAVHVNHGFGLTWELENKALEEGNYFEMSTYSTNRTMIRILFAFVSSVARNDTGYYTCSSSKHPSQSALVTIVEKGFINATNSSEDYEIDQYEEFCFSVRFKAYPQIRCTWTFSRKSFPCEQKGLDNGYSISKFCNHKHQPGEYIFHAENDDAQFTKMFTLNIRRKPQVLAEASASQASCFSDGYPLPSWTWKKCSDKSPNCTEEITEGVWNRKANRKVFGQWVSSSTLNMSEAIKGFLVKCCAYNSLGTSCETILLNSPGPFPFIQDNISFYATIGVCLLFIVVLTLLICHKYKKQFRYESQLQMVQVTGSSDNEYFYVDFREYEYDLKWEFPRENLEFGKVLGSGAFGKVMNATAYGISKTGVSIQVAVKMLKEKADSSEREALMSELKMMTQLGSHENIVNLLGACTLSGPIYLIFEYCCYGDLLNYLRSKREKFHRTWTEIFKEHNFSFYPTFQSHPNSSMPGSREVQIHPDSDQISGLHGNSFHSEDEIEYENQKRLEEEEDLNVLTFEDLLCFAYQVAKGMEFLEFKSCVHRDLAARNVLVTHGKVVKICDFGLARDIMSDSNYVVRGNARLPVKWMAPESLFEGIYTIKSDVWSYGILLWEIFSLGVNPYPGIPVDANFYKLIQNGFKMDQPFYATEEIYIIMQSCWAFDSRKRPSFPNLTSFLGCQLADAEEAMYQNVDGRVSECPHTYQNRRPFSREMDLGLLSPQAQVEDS
Procedure: as §3, §4, §5, §6

[5] = system: MOLM-13; test: Antiproliferative activity, MOLM-13 cells (ATPLite); assay type: cell-based; settings: Homo sapiens; MOLM-13 cell line (acute myeloid leukemia, FLT3-ITD), 72 h, cell viability by ATPLite; read-out: EC50 MOLM13
Procedure: as §1, §2

[6] = target: T4, FLT3^D835Y (Homo sapiens, UniProt P36888, D835Y); test: LanthaScreen TR-FRET binding test, FLT3 D835Y; settings: 15 nM protein, kinase tracer 236 3 nM, 25° C., 1 hour
T4 construct: purchased Merck Millipore 14-610
T4 sequence (P36888 27-993 D835Y): T3 sequence (P36888 27-993) with D809Y
Procedure: as §3, §4, §5, §6

[7] = target: T5, JAK2 (Homo sapiens, UniProt O60674); test: LanthaScreen TR-FRET binding test, JAK2; settings: recombinant enzyme 15 nM, kinase tracer 236 150 nM, 25° C., 1 hour
T5 construct: purchased Life Technologies FV4210
T5 sequence (O60674 whole entry): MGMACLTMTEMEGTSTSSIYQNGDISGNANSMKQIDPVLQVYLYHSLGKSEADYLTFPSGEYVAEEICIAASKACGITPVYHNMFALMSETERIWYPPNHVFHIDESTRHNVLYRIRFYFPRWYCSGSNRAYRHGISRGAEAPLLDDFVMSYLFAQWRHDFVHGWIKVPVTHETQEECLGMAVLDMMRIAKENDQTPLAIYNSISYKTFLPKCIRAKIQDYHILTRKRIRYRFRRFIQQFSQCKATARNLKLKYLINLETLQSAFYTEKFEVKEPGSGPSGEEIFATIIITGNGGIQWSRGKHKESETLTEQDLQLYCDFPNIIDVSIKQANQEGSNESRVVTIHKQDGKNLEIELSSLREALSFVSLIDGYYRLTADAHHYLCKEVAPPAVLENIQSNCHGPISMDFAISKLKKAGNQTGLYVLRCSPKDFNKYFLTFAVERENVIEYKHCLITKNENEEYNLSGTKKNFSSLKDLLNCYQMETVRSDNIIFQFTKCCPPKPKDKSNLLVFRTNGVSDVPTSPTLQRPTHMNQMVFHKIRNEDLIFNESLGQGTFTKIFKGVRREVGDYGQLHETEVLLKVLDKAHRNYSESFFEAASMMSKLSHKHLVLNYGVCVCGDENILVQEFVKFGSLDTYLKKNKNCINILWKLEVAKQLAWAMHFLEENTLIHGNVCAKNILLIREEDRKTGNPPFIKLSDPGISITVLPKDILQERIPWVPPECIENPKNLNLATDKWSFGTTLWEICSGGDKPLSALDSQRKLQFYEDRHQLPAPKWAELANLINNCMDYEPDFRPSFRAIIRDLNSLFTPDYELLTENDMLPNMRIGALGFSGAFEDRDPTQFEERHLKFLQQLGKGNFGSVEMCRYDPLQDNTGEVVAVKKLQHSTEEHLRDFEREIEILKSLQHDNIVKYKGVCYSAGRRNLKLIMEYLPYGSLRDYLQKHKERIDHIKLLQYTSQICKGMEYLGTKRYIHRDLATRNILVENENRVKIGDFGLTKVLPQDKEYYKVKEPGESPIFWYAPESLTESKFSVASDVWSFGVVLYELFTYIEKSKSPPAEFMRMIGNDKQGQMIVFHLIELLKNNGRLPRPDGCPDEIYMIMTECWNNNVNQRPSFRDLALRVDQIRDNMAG
Procedure: as §3, §7, §5, §6

CN1CCN(c2ccc3cc2OCCOCCOc2cccc(c2)-c2ccnc(n2)N3)CC1 [Compound 4]
EC50 [1]: 57.3 nM | IC50 [2]: 14.5 nM | IC50 [3]: 50 nM | IC50 [4]: 25.5 nM | EC50 [5]: 18.9 nM | IC50 [6]: 35 nM | IC50 [7]: 7.7 nM

CN1CCC(N2CCN(c3ccc4cc3OCCOCCOc3cccc(c3)-c3ccnc(n3)N4)CC2)CC1 [Compound 6]
EC50 [1]: 246 nM | IC50 [2]: 120 nM | IC50 [3]: 50 nM | IC50 [4]: 110 nM | EC50 [5]: 145 nM | IC50 [6]: 41.2 nM | IC50 [7]: 5.2 nM

CN1CCN(c2cc3cc(c2)OCCOCCOc2cccc(c2)-c2ccnc(n2)N3)CC1 [Compound 46]
EC50 [1]: 1.8 nM | IC50 [2]: 1.6 nM | IC50 [3]: 100 nM | IC50 [4]: 4.7 nM | EC50 [5]: 3.9 nM | IC50 [6]: 6.2 nM | IC50 [7]: 60 nM
